Source: ChEMBL document CHEMBL4814067, “An optimized analog of antimicrobial peptide Jelleine-1 shows enhanced antimicrobial activity against multidrug resistant P. aeruginosa and negligible toxicity in vitro and in vivo” (Eur J Med Chem, 2021)
Active and inactive are the calls of the source. No cut-off for these calls is given here.

Tests used:
Escherichia coli [1] = assay: Antibacterial activity against Escherichia coli ATCC 25922 assessed as transparent well by visual inspection after 18 hrs by CLSI based-broth microdilution method; type: functional
Pseudomonas aeruginosa [2] = assay: Antibacterial activity against Pseudomonas aeruginosa ATCC 27853 assessed as transparent well by visual inspection after 18 hrs by CLSI based-broth microdilution method; type: functional
Enterobacter sp. = assay: Antibacterial activity against Enterobacter sakazakii ATCC 29544 assessed as transparent well by visual inspection after 18 hrs by CLSI based-broth microdilution method; type: functional
Staphylococcus aureus [3] = assay: Antibacterial activity against Staphylococcus aureus ATCC 29213 assessed as transparent well by visual inspection after 18 hrs by CLSI based-broth microdilution method; type: functional; conditions: C1 ATCC 29213
Bacillus subtilis = assay: Antibacterial activity against Bacillus subtilis ATCC 23857 assessed as transparent well by visual inspection after 18 hrs by CLSI based-broth microdilution method; type: functional
[4] = test system: Staphylococcus epidermidis; assay: Antibacterial activity against Staphylococcus epidermidis ATCC 12228 assessed as transparent well by visual inspection after 18 hrs by CLSI based-broth microdilution method; type: functional
Staphylococcus aureus [5] = assay: Antibacterial activity against methicillin resistant Staphylococcus aureus clinical isolate 1 assessed as transparent well by visual inspection after 18 hrs by CLSI based-broth microdilution method; type: functional; conditions: C1
Staphylococcus aureus [6] = assay: Antibacterial activity against methicillin resistant Staphylococcus aureus clinical isolate 2 assessed as transparent well by visual inspection after 18 hrs by CLSI based-broth microdilution method; type: functional
Staphylococcus aureus [7] = assay: Antibacterial activity against methicillin resistant Staphylococcus aureus clinical isolate 3 assessed as transparent well by visual inspection after 18 hrs by CLSI based-broth microdilution method; type: functional
Staphylococcus aureus [8] = assay: Antibacterial activity against methicillin resistant Staphylococcus aureus clinical isolate 4 assessed as transparent well by visual inspection after 18 hrs by CLSI based-broth microdilution method; type: functional
Escherichia coli [9] = assay: Antibacterial activity against ESBL-producing Escherichia coli clinical isolate 1 assessed as transparent well by visual inspection after 18 hrs by CLSI based-broth microdilution method; type: functional
Escherichia coli [10] = assay: Antibacterial activity against ESBL-producing Escherichia coli clinical isolate 2 assessed as transparent well by visual inspection after 18 hrs by CLSI based-broth microdilution method; type: functional
Escherichia coli [11] = assay: Antibacterial activity against ESBL-producing Escherichia coli clinical isolate 3 assessed as transparent well by visual inspection after 18 hrs by CLSI based-broth microdilution method; type: functional
Escherichia coli [12] = assay: Antibacterial activity against ESBL-producing Escherichia coli clinical isolate 4 assessed as transparent well by visual inspection after 18 hrs by CLSI based-broth microdilution method; type: functional
Escherichia coli [13] = assay: Antibacterial activity against ESBL-producing Escherichia coli clinical isolate 5 assessed as transparent well by visual inspection after 18 hrs by CLSI based-broth microdilution method; type: functional
Pseudomonas aeruginosa [14] = assay: Antibacterial activity against Pseudomonas aeruginosa clinical isolate assessed as transparent well by visual inspection after 18 hrs by CLSI based-broth microdilution method; type: functional
Erythrocyte = assay: Haemolytic activity in human erythrocytes by optical absorption assay; type: ADME, cell-based
NIH3T3 = assay: Cytotoxicity against mouse NIH/3T3 assessed as reduction in cell viability measured after 24 hrs by MTT assay; type: cell-based; conditions: nih3t3, 24 h
RAW264.7 = assay: Cytotoxicity against mouse RAW264.7 assessed as reduction in cell viability measured after 24 hrs by MTT assay; type: cell-based; conditions: raw264.7, 24 h
HeLa = assay: Cytotoxicity against human HeLa cells assessed as reduction in cell viability measured after 24 hrs by MTT assay; type: cell-based
Staphylococcus aureus [15] = assay: Bactericidal activity against Staphylococcus aureus assessed as killing effect at 2 times MIC measured at 60 mins by bacterial colony counting assay; type: functional; conditions: 1 h
Escherichia coli [16] = assay: Bactericidal activity against Escherichia coli assessed as killing effect at 2 times MIC measured at 60 mins by bacterial colony counting assay; type: functional; conditions: 1 h
Staphylococcus aureus [17] = assay: Bactericidal activity against Staphylococcus aureus assessed as killing effect at 1 times MIC measured at 240 mins by bacterial colony counting assay; type: functional, organism-based
Escherichia coli [18] = assay: Bactericidal activity against Escherichia coli assessed as killing effect at 1 times MIC measured at 120 mins by bacterial colony counting assay; type: functional, organism-based
Pseudomonas aeruginosa [19] = assay: Inhibition of biofilm formation in multidrug-resistant Pseudomonas aeruginosa at 64 uM measured after 24 hrs by crystal violet staining based assay; type: functional
Cell membrane [20] = assay: Induction of outer membrane permeabilization in Escherichia coli using NPN hydrophobic fluorescent probe at 1 to 8 times of MIC measured for 15 mins by multimode reader
Cell membrane [21] = assay: Induction of inner membrane permeabilization in Escherichia coli ML-35 assessed as increase in ONPG at 1 to 8 times of MIC measured 100 mins by multimode reader
Pseudomonas aeruginosa [22] = assay: Antimicrobial activity against multidrug-resistant Pseudomonas aeruginosa infected in peritonitis sepsis mouse model assessed as increase in mouse survival rate at 10 mg/kg, ip measured after 3 days; type: functional, organism-based; conditions: time 3.0 day
Pseudomonas aeruginosa [23] = assay: Antimicrobial activity against multidrug-resistant Pseudomonas aeruginosa infected in peritonitis sepsis mouse model assessed as increase in mouse survival rate at 30 mg/kg, ip measured after 7 days; type: functional, organism-based; conditions: time 7.0 day
[24] = Toxicity in mouse assessed as effect on alanine aminotransferase level at 10 to 30 mg/kg, ip measured after 8 days; type: organism-based; conditions: in vivo, 192 h, dose 10-30 mg/kg, time 8 day
[25] = Toxicity in mouse assessed as effect on aspartate transaminase level at 10 to 30 mg/kg, ip measured after 8 days; type: organism-based; conditions: in vivo, 192 h, dose 10-30 mg/kg, time 8 day
[26] = Toxicity in mouse assessed as effect on total protein level at 10 to 30 mg/kg, ip measured after 8 days; type: organism-based; conditions: in vivo, 192 h, dose 10-30 mg/kg, time 8 day
[27] = Toxicity in mouse assessed as effect on total albumin level at 10 to 30 mg/kg, ip measured after 8 days; type: organism-based; conditions: in vivo, 192 h, dose 10-30 mg/kg, time 8 day
[28] = Toxicity in mouse assessed as effect on body weight at 10 to 30 mg/kg, ip measured after 8 days; type: organism-based; conditions: in vivo, 192 h, dose 10-30 mg/kg, time 8 day

In the case of H-PWRLRLRL-OH, the MIC (Escherichia coli [1]) is reported as 4 µM, the MIC (Pseudomonas aeruginosa [2]) is reported as 8 µM and the MIC (Enterobacter sp.) is reported as 8 µM. It also gave an MIC (Staphylococcus aureus [3]) of 32 µM, an MIC (Bacillus subtilis) of 4 µM and an MIC [4] of 8 µM. The MIC (Staphylococcus aureus [5]) was 32 µM, the MIC (Staphylococcus aureus [6]) was 32 µM and the MIC (Staphylococcus aureus [7]) was 32 µM. For the same substance, the MIC (Staphylococcus aureus [8]) was 32 µM, the MIC (Escherichia coli [9]) was 4 µM and the MIC (Escherichia coli [10]) was 4 µM. The MIC (Escherichia coli [11]) was 4 µM, the MIC (Escherichia coli [12]) was 4 µM and the MIC (Escherichia coli [13]) was 4 µM. The MIC (Pseudomonas aeruginosa [14]) was 8 µM, the Activity (Erythrocyte) was “Non-Toxic” and the Activity (NIH3T3) was “Non-Toxic”. The Activity (RAW264.7) was “Non-Toxic”, the Activity (HeLa) was “Non-Toxic” and the Activity (Staphylococcus aureus [15]) was 100%. For the same substance, the Activity (Escherichia coli [16]) was 100%, the Activity (Staphylococcus aureus [17]) was “Active” and the Activity (Escherichia coli [18]) was “Active”. For the same substance, the inhibition at 64 µM (Pseudomonas aeruginosa [19]) was 74.6%, the Activity (Cell membrane [20]) was “Dose-Dependent Effect” and the Activity (Cell membrane [21]) was “Active”. For the same substance, the Activity (Pseudomonas aeruginosa [22]) was “inactive”, the Activity (Pseudomonas aeruginosa [23]) was “Active” and the Activity [24] was “Non-Toxic”. The Activity [25] was “Non-Toxic”, the Activity [26] was “Non-Toxic” and the Activity [27] was “Non-Toxic”. The Activity [28] was “Non-Toxic”.
